# According to patent US20240139129A1, “NOVEL METHOD AND AGENT FOR TREATING, DIAGNOSING AND DETECTING DIABETES AND COMPLICATIONS” (Biozipcode, Inc., priority 2021, published 2024):
# System: diabetic patients (type 1 and type 2 diabetes mellitus)
# Assay: Research Plan 2: therapy of diabetes mellitus targeting bone marrow-derived abnormal hematopoietic stem cell in patients
# Format: in vivo, human
# Conditions: type 1 and type 2 diabetic patients, 12 weeks therapy
substance,measurement,value
insulin: insulin therapy alone for three months (control group) in the human research plan,(A) effect of eliminating abnormal hematopoietic stem cells,not eliminated
same,(B) effect of healing diabetes mellitus,not observed
same,(C) therapeutic effect on a complication,observed to some extent
